From patent US20070270418A1, “Inhibitors of P38 and Methods of Using the Same” (priority 2003, published 2007) come the findings set out here.

In assay [1] the target is T1, p38β (Homo sapiens, UniProt Q15759).
T1 construct: p38 MAP Kinases are recombinant human full-length proteins with an amino-terminal GST fusion; GST (N); purchased Upstate (Charlottesville, Va.); host or cells: E. coli
In words: Kinase selectivity, ATF2 phosphorylation ELISA. It counts as biochemical. As for the experimental part: All kinases and the substrate ATF2 are acquired from Upstate (Charlottesville, Va.). p38 MAP Kinases are recombinant human full-length proteins with an amino-terminal GST fusion, expressed in and purified from E. coli. ATF2 is a GST fusion protein containing amino acids 19-96 of human ATF2 expressed in E. coli. All proteins were aliquoted and stored at −80° C.
p38 MAP Kinase assays are performed using an assay buffer containing 25 mM HEPES, pH 7.5, 10 mM MgCl2, 2 mM DTT, 20 mM β-glycerophosphate, 0.1 mM Na3VO4, 40 μM ATP and 1.25 μM of ATF2, together with 6 ng of p38α protein, 12 ng p38β protein, 1.5 ng p38γ, or 0.4 ng JNK2α2. Compounds are serially diluted in DMSO and 2 μL of test compound at 25× final concentration is used. The vehicle control receives DMSO only. Test compounds are pre-incubated with 20 μl of enzyme in kinase buffer (25 mM HEPES, pH 7.5, 10 mM MgCl2, 2 mM DTT, 20 mM 3-glycerophosphate and 0.1 mM Na3VO4) at room temperature for 15 minutes. […] The reactions are incubated for 30 minutes at 37° C. and terminated by the addition of 18 μl of 200 mM EDTA. An ELISA method is used to measure the phosphorylation of ATF2 at Thr 69. High binding 96-well plates (Corning 3369) are coated with 50 μl of kinase reaction for 1 hour at 37° C. The coated plates are washed with 200 μl washing buffer (25 mM Tris HCl, pH 8.3, 192 mM glycine, 0.1% SDS and 0.05% Tween-20) three times. The plates are then washed three times with SuperBlock in TBS (Pierce, 37535). After blocking, plates are incubated with 50 μl of rabbit anti-phospho-ATF2 antibody (Cell Signaling, 9221 L, 1:500) for 30 minutes at 37° C. Plates are washed three times with washing buffer prior to incubation with 50 μl HRP-conjugated goat anti-rabbit antibody (Cell Signaling, 7074, 1:500) for 30 minutes at 37° C. Plates are then washed three times with washing buffer before incubation with 50 μl of Ultra TMB-ELISA (Pierce, 34028) for 8 minutes at room temperature. Finally, 50 μl of phosphoric acid (1 M) is added to stop reactions and plate absorbance is read at 450 nm on a SpectraMax 250 plate reader.
A selectivity panel is used to test the cross-reactivity of compounds of the invention with the β and γ isoforms of p38 MAP kinase, Src^p60 and JNK2α2. The p38β, p38γ, and JNK2α2 assays are described in Example 4. The Src^p60 assay measures the ability of compounds to inhibit Src^p60-catalyzed phosphorylation of a peptide substrate.
A general note: ELISA stands for enzyme-linked immunosorbent assay.

Assay [2] deals with T2, GSK3β (Homo sapiens, UniProt P49841).
T2 construct: purchased Upstate (Charlottesville, Va.)
T2 sequence (P49841 whole entry, species assumed): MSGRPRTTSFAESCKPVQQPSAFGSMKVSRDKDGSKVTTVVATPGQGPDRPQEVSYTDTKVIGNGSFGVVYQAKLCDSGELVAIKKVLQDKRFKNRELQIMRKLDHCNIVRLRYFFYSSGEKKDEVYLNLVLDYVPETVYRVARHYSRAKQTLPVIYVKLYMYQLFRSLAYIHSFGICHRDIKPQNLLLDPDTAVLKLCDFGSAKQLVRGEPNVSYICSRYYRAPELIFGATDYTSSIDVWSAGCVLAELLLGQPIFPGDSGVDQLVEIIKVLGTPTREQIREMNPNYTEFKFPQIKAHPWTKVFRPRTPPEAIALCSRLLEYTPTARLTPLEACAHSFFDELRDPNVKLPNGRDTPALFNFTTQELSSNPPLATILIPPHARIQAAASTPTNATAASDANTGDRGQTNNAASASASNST
Nature of the assay: Broad selectivity panel, 32P incorporation. The format is biochemical. The note with it: 40 μM ATP, read-out: Percent inhibition GSK3β. How it is done:
(§1) Various compounds of the present invention are screened against a panel of 24 additional kinases (Upstate, Charlottesville, Va.). Compounds are tested 0.1 μM and 1 μM in reactions containing 40 μM ATP. Incorporation of radiolabeled phosphate (^32P) into each kinase substrate is measured in the presence and absence of test compound. Results are reported as the percent decrease in the amount of ^32P incorporated into the substrate in the presence of compound, compared to buffer control.

The target in assay [3] is T3, JNK1α1 (Homo sapiens, UniProt P45983).
T3 construct: purchased Upstate (Charlottesville, Va.)
T3 sequence (P45983 1-384 isoform P45983-2, species assumed): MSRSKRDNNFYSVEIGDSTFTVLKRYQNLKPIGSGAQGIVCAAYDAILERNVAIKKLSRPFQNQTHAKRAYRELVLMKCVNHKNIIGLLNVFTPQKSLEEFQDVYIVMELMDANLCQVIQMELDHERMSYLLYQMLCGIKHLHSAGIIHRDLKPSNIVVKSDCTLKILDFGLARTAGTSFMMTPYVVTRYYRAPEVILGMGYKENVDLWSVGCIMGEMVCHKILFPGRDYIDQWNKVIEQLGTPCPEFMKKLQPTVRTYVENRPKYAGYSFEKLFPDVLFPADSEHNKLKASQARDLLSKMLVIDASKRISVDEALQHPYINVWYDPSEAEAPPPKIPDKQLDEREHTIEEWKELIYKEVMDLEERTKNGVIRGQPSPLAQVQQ
In words: Broad selectivity panel, 32P incorporation. It counts as biochemical. The conditions noted are these: 40 μM ATP, read-out: Percent inhibition JNK1α1. As for the experimental part:
as §1

Assay [4] addresses T4, MAPK2 (Homo sapiens, UniProt P28482).
T4 construct: purchased Upstate (Charlottesville, Va.)
In words: Broad selectivity panel, 32P incorporation. The format is biochemical. The conditions noted are these: 40 μM ATP, read-out: Percent inhibition MAPK2. How it is done: as §1

Assay [5] deals with T5, PDGFR α (Homo sapiens, UniProt P16234).
T5 construct: purchased Upstate (Charlottesville, Va.)
T5 sequence (P16234 24-1089, species assumed): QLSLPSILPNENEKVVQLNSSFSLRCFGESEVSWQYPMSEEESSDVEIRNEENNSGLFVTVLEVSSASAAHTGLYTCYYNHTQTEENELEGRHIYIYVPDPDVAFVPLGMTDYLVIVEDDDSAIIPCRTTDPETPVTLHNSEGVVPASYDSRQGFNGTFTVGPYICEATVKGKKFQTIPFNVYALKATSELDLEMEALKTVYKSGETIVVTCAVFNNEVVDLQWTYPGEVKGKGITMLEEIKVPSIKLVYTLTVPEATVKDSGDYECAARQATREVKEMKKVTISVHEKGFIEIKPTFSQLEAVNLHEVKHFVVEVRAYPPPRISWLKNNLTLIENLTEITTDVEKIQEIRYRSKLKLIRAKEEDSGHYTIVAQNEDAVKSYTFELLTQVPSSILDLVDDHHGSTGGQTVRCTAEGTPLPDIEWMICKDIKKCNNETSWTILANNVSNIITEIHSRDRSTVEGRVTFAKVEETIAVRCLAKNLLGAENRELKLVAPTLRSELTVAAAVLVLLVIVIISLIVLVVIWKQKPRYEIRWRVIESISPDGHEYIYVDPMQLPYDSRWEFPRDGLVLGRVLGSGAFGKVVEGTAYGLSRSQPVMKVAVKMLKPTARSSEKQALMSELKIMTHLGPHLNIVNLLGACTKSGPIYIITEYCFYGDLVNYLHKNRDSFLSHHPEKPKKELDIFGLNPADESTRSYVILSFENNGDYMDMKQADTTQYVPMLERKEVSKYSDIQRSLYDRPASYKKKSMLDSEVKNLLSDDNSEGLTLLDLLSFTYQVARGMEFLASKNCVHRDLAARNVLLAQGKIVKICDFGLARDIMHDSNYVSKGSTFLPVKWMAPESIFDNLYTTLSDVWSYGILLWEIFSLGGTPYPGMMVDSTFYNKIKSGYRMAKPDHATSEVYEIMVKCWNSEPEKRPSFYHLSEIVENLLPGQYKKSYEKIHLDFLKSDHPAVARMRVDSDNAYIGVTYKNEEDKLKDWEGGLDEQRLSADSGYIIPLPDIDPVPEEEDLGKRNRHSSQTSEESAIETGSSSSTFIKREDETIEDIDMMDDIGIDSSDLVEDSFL
In words: Broad selectivity panel, 32P incorporation. The format is biochemical. The note with it: 40 μM ATP, read-out: Percent inhibition PDGFR α. How it is done:
as §1

In assay [6] the target is T6, PKBβ (Homo sapiens, UniProt P31751).
T6 construct: purchased Upstate (Charlottesville, Va.)
T6 sequence (P31751 whole entry, species assumed): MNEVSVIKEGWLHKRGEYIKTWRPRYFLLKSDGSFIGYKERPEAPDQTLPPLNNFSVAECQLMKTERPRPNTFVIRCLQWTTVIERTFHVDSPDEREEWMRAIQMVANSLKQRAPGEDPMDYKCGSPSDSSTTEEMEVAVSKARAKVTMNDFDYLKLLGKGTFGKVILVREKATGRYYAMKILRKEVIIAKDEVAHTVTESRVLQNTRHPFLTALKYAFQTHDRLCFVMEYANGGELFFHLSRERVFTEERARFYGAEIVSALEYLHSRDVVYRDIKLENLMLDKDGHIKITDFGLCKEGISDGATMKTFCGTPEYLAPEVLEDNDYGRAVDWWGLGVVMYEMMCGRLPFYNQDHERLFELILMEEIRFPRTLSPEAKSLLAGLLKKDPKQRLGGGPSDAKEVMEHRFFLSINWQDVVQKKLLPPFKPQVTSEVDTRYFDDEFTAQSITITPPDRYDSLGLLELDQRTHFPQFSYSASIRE
In words: Broad selectivity panel, 32P incorporation. The format is biochemical. The note with it: 40 μM ATP, read-out: Percent inhibition PKBβ. How it is done: as §1

Assay [7] has as its target T7, c-RAF (Homo sapiens, UniProt P04049).
T7 construct: purchased Upstate (Charlottesville, Va.)
In words: Broad selectivity panel, 32P incorporation. The format is biochemical. The conditions noted are these: 40 μM ATP, read-out: Percent inhibition c-RAF. As for the experimental part:
as §1

Assay [8] deals with collagen-induced arthritis in rats. In words: In vivo established type II collagen arthritis study. More on the design: species or system Female Lewis rats. The conditions noted are these: Rattus norvegicus, po, oral gavage bid, days 1-7 of arthritis. As for the experimental part: Compounds are tested in the collagen-induced model of arthritis in rats. Female Lewis rats (0.16-0.2 kg) are injected subcutaneously at the base of the tail and two sites on the back on day 0 and 6 with 300 μl of Freund's Incomplete Adjuvant containing 2 mg/ml of Bovine Type II Collagen. On day 9 of the study, caliper measurements of both hind leg ankle joints are performed. This measurement is considered the normal, pre-disease measurement. When ankle swelling is clearly established in at least one hind paw (caliper measurement increase from 0.263 to 0.282 inches), rats are enrolled into the treatment phase of the study. This occurs on day 10 or 11 of the study and is considered to be day 1 of arthritis. Enrolled animals are randomized and administered vehicle control or compound (1, 3.3, 10, or 30 mg/kg, bid), unless otherwise indicated, or dexamethasone (0.0375 mg/kg, bid) via oral gavage on days 1-7 of arthritis (treatment days). Ankle diameters are measured on each day of treatment. Mean increases in ankle diameter for 7 lead compounds are shown below in FIGS. 3-9.
Following sacrifice on day 7, both hind paws are removed from each animal and weighed. Knees and ankles from all animals in all groups are preserved, decalcified in 5% formic acid and trimmed into two approximately equal longitudinal (ankles) or frontal (knees) halves, dehydrated, cleared, infiltrated, and embedded in paraffin. Blocks are sectioned and stained with Toluidine Blue.
Tissues are examined microscopically and scored for knee and ankle inflammation (cellular infiltration), pannus formation and infiltration, cartilage damage (loss of Toluidine staining and collagen disruption) and bone resorption. Scoring is on a scale from 0-5, where a score of 0 is normal and a score of 5 indicates severe damage or evidence of disease or both.

Like-named read-outs stand apart in the source and are kept apart here.

T4 sequence (P28482 whole entry): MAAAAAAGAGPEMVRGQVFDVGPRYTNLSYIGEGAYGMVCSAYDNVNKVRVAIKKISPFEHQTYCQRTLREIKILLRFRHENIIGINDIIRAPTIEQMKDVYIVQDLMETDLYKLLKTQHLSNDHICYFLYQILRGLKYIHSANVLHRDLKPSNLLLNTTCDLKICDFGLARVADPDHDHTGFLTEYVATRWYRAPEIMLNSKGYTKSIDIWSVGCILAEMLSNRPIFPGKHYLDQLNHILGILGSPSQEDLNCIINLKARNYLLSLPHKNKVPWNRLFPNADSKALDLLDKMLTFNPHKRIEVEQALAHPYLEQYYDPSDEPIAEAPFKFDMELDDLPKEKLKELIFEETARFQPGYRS
T7 sequence (P04049 whole entry, species assumed): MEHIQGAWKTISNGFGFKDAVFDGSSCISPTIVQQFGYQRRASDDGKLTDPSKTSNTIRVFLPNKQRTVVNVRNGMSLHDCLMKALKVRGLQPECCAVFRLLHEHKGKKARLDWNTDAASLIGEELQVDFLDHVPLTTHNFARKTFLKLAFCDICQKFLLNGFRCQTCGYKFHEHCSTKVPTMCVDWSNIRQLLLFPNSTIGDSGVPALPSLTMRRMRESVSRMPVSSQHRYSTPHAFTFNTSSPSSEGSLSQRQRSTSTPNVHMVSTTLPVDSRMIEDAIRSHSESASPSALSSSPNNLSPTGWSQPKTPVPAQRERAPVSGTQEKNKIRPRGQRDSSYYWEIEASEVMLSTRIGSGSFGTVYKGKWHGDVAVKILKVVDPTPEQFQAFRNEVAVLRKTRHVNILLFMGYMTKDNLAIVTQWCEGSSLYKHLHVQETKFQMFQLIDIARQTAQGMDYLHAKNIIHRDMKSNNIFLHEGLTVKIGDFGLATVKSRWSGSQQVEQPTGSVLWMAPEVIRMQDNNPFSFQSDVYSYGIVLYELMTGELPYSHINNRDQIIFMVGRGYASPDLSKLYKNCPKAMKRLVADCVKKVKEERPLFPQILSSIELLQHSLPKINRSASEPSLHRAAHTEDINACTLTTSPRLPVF
T1 sequence (Q15759 whole entry, the tested form may be a part): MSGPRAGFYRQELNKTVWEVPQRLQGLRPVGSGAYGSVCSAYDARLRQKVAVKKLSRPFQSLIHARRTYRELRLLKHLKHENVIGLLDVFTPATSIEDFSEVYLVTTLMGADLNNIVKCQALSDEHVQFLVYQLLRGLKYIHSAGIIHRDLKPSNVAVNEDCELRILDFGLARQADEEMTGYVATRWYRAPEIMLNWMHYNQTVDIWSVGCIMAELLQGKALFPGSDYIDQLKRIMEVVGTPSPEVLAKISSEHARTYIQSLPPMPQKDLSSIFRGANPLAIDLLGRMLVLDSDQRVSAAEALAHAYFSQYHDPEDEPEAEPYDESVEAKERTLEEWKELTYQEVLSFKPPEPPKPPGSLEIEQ

Turning to `CN(C)CC(C)(C)CNc1nccc(-c2c(-c3ccc(F)cc3)nc3occn23)n1` [CXIX], inhibition in assay [1] was half-maximal at 0.288 µM (IC50). In addition, the inhibition (usually the change of the read-out against control, counted positive when it falls) at 0.1 µM in assay [2] (0.1 μM compound) is 11%; in assay [3] (0.1 μM compound) it was -1%; in assay [4] (0.1 μM compound), 10%; in assay [5] (0.1 μM compound), 26%; in assay [6] (0.1 μM compound) it was -4%; in assay [7] (0.1 μM compound) it was -3%. Further, the inhibition at 1 µM was 13% in assay [2] (1 μM compound); -18% in assay [3] (1 μM compound); 7% in assay [4] (1 μM compound); 10% in assay [5] (1 μM compound); -19% in assay [6] (1 μM compound); 3% in assay [7] (1 μM compound). The 50% effective dose (ED50) (as a rule, the dose that gives a 50% effect, or the effect in half of the subjects) in assay [8] (first column so headed (c3), read-out: ED50 summed ankle histology) was determined as 2.64 mg/kg; in assay [8] (read-out: ED50 ankle diameter) it was 2.3 mg/kg; in assay [8] (read-out: ED50 paw weights), 3.75 mg/kg; in assay [8] (second column so headed (c4), read-out: ED50 summed ankle histology), 1.19 mg/kg.
